Results reported in patent publication US7141562B2, “Substituted benzoxazinones and uses thereof” (Roche Palo Alto LLC, priority 2002, dated 2006).
Counter-ions that a name gives are not always drawn.

Biological target: T1, recombinant human 5-HT6 receptor (Homo sapiens, UniProt P50406)
T1 construct: expressed in transfected cells; cell membranes used
Assay: Radioligand binding: competition for [3H]LSD binding in membranes of HEK293 cells expressing the receptor
Settings: [3H]LSD (5 nM), HEK293 cell membranes, 60 min at 37° C., pH 7.4, duplicate determinations
Method: The binding activity of compounds of this invention in vitro was determined as follows. Duplicate determinations of ligand affinity are made by competing for binding of [^3H]LSD in cell membranes derived from HEK293 cells stably expressing recombinant human 5-HT6 receptor.
All determinations were made in assay buffer containing 50 mM Tris-HCl, 10 mM MgSO4, 0.5 mM EDTA, 1 mM ascorbic acid, pH 7.4 at 37° C., in a 250 microliter reaction volume. Assay tubes containing [^3H] LSD (5 nM), competing ligand, and membrane were incubated in a shaking water bath for 60 min. at 37° C., filtered onto Packard GF-B plates (presoaked with 0.3% PEI) using a Packard 96 well cell harvester and washed 3 times in ice cold 50 mM Tris-HCl. Bound [^3H] LSD was determined as radioactive counts per minute using Packard TopCount.
Displacement of [3H]LSD from the binding sites was quantified by fitting concentration-binding data to a 4-parameter logistic equation:
[formula] where Hill is the Hill slope, [ligand] is the concentration of competing radioligand and IC50 is the concentration of radioligand producing half-maximal specific binding of radioligand. The specific binding window is the difference between the Bmax and the basal parameters.

T1 sequence (P50406 whole entry): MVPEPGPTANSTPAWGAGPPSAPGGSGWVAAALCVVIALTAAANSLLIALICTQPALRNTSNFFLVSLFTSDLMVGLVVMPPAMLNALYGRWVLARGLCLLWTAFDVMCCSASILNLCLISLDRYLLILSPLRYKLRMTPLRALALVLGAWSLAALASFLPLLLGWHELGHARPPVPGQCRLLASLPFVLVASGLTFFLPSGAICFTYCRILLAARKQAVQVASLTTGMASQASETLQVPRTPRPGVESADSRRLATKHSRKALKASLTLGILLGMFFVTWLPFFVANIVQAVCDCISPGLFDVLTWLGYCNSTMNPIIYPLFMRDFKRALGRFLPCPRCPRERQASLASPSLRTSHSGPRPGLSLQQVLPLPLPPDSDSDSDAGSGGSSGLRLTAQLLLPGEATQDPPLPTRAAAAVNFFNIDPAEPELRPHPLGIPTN

Point of comparison: `O=C1COc2c(N3CCNCC3)cc(F)cc2N1Cc1ccccc1F` [4-(2-fluoro-benzyl)-6-fluoro-8-piperazin-1-yl-4H-benzo[1,4]oxazin-3-one], Ki 0.676 nM. Against it:
- O=C1COc2c(N3CCNCC3)cccc2N1Cc1ccccc1F [4-(2-fluoro-benzyl)-8-piperazin-1-yl-4H-benzo[1,4]oxazin-3-one] — within 1.5-fold, 0.912 nM
- CC1(C)Oc2c(N3CCNCC3)cccc2N(Cc2cccc(Cl)c2)C1=O [4-(3-Chloro-benzyl)-2,2-dimethyl-8-piperazin-1-yl-4H-benzo[1,4]oxazin-3-one] — within 1.5-fold, 0.759 nM
- CC1(C)Oc2c(N3CCNCC3)cccc2N(Cc2ccccc2)C1=O [4-Benzyl-2,2-dimethyl-8-piperazin-1-yl-4H-benzo[1,4]oxazin-3-one] — within 1.5-fold, 0.741 nM
- C[C@@H]1Oc2c(N3CCNCC3)cccc2N(Cc2ccccc2)C1=O [(S)-4-Benzyl-2-methyl-8-piperazin-1-yl-4H-benzo[1,4]oxazin-3-one] — within 1.5-fold, 0.759 nM

System: not given
Assay: not given
Settings: not given

Compared with `COc1cc(N2CCNCC2)c2c(c1)N(Cc1cccc(Cl)c1)C(=O)CO2` (as salt: hydrochloride), `O=C1COc2c(N3CCNCC3)cccc2N1Cc1ccccc1` (as salt: hydrochloride) is higher in melting point: 55.2 to 58.8 °C for the first, 250.9 to 253.8 °C for the second.
